We go through three compounds from patent US5580871A, “4-Heteroaryl- 1,4-dihydropyridine compounds with calcium agonist and alpha1 -antagonist activity” (The Dupont Merck Pharmaceutical Company, priority 1995, dated 1996).

In one series the test system is guinea pig left atria. Briefly: Positive inotropic effect in guinea pig left atria. The following applies: Cavia porcellus; for EC50: concentration that increases developed tension (DT) by 50% above the control DT, left atria paced at 2 Hz, 37° C.; for Emax: ratio of the maximum effect of the test compound to that of Bay K8644, read-out: Intrinsic Activity. The protocol:
Guinea pigs are killed by cervical dislocation. The left atria are removed and mounted at 1 gm resting tension in tissue baths containing oxygenated Krebs bicarbonate solution which is kept at 37° C. The left atria are electrically paced at 2 Hz with square wave pulses of 1 msec duration. The voltage is set at 1.5×threshold level.
After a one hour equilibration period, control values for developed tension (DT, gm) are recorded. Test compounds are then added to the baths, in a cumulative manner to a maximum concentration of 10^-4, to obtain a concentration-response curve. Treatment values of DT are obtained after the drug effect has reached a plateau and the exposure time for each concentration is 5-8 minutes. Percent change of the treatment value from the control value is calculated at each concentration of the test compound.

Series [1] concerns influx of calcium ions into cells. The note with it: background, cited from earlier work.
For another series, the target named is T1, Ca^2+ channel (Rattus norvegicus, UniProt P22002).
T1 construct: rat cardiac microsomes (source of Ca^2+ channels); from tissue; host or cells: rat cardiac microsomes
T1 sequence (P22002 whole entry, other chains not shown): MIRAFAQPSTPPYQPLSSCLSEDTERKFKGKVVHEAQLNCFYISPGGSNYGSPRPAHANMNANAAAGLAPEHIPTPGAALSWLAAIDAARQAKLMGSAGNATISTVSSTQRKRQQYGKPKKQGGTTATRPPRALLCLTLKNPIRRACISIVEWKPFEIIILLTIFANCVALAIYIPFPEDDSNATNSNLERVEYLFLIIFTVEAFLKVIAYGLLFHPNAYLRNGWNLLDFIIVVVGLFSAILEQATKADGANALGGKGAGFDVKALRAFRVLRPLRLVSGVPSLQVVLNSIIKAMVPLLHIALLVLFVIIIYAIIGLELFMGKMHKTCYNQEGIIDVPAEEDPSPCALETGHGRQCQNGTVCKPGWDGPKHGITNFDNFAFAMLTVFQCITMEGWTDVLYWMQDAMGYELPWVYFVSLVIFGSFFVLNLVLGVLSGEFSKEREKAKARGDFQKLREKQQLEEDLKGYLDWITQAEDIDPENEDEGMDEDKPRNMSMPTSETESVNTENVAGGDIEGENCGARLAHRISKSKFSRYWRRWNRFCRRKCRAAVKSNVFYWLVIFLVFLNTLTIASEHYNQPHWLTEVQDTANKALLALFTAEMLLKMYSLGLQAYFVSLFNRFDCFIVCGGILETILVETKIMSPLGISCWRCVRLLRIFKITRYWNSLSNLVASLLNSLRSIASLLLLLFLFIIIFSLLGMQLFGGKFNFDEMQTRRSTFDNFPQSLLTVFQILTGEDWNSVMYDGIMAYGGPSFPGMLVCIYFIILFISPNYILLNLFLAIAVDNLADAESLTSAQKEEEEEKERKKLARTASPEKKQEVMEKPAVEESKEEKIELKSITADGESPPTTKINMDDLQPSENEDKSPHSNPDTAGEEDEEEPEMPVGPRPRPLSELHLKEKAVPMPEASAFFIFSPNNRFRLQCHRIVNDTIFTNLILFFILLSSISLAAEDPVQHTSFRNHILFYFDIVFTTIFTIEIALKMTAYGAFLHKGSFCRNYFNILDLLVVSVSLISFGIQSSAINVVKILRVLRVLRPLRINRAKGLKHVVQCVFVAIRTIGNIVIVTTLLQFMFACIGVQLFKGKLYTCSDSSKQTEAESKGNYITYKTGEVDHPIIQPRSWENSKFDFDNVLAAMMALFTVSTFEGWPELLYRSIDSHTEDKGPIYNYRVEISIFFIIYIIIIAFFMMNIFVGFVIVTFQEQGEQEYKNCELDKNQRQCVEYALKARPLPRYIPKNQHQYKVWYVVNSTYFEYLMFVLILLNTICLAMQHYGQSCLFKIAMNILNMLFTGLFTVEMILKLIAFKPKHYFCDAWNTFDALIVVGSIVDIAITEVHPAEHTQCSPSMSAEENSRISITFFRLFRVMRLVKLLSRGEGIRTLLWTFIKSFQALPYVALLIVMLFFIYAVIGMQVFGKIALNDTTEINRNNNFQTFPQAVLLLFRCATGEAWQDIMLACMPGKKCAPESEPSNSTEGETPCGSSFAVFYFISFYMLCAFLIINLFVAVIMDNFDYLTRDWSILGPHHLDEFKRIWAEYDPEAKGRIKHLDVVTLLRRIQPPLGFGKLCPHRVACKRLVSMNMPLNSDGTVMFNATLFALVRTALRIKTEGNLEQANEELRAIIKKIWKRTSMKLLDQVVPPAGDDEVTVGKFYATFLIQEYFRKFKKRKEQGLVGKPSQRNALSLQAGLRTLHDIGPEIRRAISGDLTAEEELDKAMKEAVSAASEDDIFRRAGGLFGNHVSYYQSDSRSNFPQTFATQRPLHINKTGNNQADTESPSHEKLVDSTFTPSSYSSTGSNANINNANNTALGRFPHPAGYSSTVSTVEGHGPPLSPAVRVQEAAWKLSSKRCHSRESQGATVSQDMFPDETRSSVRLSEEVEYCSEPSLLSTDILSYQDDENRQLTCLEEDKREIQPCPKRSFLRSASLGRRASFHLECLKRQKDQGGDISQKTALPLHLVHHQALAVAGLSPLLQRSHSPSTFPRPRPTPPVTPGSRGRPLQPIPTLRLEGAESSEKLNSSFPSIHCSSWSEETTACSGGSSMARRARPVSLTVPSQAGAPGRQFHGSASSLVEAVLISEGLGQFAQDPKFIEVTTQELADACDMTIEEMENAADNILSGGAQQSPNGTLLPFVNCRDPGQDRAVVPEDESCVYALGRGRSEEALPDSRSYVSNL
T1 sequence (P54290 25-944 partner limits assumed, other chains not shown): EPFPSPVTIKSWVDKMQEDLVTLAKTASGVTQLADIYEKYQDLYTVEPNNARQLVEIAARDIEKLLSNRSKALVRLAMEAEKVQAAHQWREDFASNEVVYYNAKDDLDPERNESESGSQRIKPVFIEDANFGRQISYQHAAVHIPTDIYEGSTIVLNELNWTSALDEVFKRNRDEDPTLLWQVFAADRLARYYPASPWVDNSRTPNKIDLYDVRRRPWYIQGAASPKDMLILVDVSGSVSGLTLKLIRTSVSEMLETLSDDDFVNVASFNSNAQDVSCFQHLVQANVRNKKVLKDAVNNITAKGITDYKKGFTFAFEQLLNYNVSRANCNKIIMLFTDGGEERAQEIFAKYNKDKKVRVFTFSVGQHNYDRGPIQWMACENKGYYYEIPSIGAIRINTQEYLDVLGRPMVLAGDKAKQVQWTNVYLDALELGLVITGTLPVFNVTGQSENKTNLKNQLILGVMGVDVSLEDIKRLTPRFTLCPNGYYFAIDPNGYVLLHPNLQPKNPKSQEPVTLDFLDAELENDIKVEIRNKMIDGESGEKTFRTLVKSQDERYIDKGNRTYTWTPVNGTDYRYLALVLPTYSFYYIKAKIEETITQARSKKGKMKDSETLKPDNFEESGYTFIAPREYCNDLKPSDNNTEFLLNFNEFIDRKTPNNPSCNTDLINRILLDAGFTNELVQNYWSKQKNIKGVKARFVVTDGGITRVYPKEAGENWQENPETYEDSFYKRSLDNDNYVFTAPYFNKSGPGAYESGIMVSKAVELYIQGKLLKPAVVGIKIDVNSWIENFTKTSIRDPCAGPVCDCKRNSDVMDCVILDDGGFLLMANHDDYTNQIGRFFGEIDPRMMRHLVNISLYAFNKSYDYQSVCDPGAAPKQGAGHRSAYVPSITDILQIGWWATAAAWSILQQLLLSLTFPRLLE
T1 sequence (P54290 945-1091 partner limits assumed, other chains not shown): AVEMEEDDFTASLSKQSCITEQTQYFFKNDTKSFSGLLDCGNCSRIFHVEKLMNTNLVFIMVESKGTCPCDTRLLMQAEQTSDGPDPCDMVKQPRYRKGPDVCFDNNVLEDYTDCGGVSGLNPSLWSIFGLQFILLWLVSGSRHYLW
The series is described as follows: [3H]-Nitrendipine binding assay (affinity for calcium channels). The following applies: rat cardiac microsomes; 0.5 nM [3H]-nitrendipine, 60 min, 25° C. The protocol:
[^3 H]-Nitrendipine binding assay was carried out according to the method described by G. T. Bolger, et al., Biochem. Biophys. Res. Comm., 104, 1604-1609, (1982). The reaction mixture contained rat cardiac microsomes (source of Ca^2+ channels), 0.5 nM [^3 H]-nitrendipine with or without potential displacer in Tris buffer. The mixture was incubated for 60 minutes at 25° C. and subsequently terminated by rapid filtration through a glass fiber-filter. Membrane-bound [^3 H]-nitrendipine trapped in the filter was quantitated by scintillation counting. The inhibitory concentration (IC50) of potential displacer which gives 50% displacement of the total specifically bound [^3 H]-nitrendipine is presented as a measure of the affinity of such compound for the Ca^2+ channel.

The target of a further series is alpha1-adrenoceptor. Briefly: [3H]-Prazosin binding assay (affinity for alpha1-adrenoceptors). The note with it: partially purified rat brain membranes; 0.2 nM [3H]-prazosin, 60 min, 25° C. The protocol: The [^3 H]-prazosin binding assay was carried out according to the method described by Timmermans, P. B. M. W. M., Schoop, A. M. C., and Van Zwieten, P. A., Biochem. Pharmacol., 31, 899-905, (1982). The reaction mixture contained partially purified rat brain membranes (source of alpha1 -adrenoceptors), 0.2 nM [^3 H]-prazosin with or without potential displacer in Tris buffer. The mixture was incubated for 60 minutes at 25° C. and subsequently terminated by rapid filtration through glass fiber-filter. Receptor-bound [^3 H]-prazosin trapped in the filter was quantitated by scintillation counting. The inhibitory concentration (IC50) of potential displacer which gives 50% displacement of the total specifically bound [^3 H]-prazosin is presented as a measure of the affinity of such compound for the alpha1 -adrenoceptor.

With `COC(=O)C1=C(C)NC(C)=C([N+](=O)[O-])C1c1ccccc1C(F)(F)F` (stereo not shown) [Bay K8644], in the series on guinea pig left atria, the EC50 was 0.15 µM and the Emax stood at 100%. For the same compound, in series [1] (literature), the “calcium influx, inotropic and vascular effects” value was “promote an influx of calcium ions, into cells thereby producing positive inotropic and vasoconstrictor effects”; the “potency as a calcium agonist relative to CGP 28392” value is reported as “more than ten times as potent as CGP 28392 as a calcium agonist”. Besides, the coronary vasoconstriction result in series [1] (not useful as a cardiotonic) was “coronary vasoconstricting properties”.
`COc1ccccc1N1CCN(CCOC(=O)C2=C(C)NC(C)=C([N+](=O)[O-])C2c2cccn2C)CC1` (stereo not shown) [Example 77, 1,4-Dihydro-2,6-dimethyl-4-(1-methyl-1H-pyrrol-2-yl)-5-nitro-3-pyridinecarboxylic acid, {2-[4-(2-methoxyphenyl)-1-piperazinyl]ethyl} ester]: the IC50 on Ca^2+ channel is 1.1 µM. In the series with guinea pig left atria, the EC50 came to 0.23 µM and the Emax amounted to 240%. Moreover, on alpha1-adrenoceptor, the IC50 is 0.11 µM.
The matching figures for `CC1=C(C(=O)OCCN2CCN(c3ncccn3)CC2)C(c2cccn2C)C([N+](=O)[O-])=C(C)N1` (stereo not shown) [Example 78, 1,4-Dihydro-2,6-dimethyl-4-(1-methyl-1H-pyrrol-2-yl)-5-nitro-3-pyridinecarboxylic acid, {2-[4-(2-pyrimidinyl)-1-piperazinyl]ethyl} ester]: 1.7 µM, 0.58 µM, 231% and 3.3 µM.

For orientation: IC50 means the midpoint of a concentration-inhibition curve.
